Measurements from ChEMBL document CHEMBL1201862, “PubChem BioAssay data set” (2004).
Activity calls are given as the source filed them.

Tests used:
[1] = system: Vero; assay: cells; type: functional, cell-based; conditions: Chlorocebus sabaeus
[2] = system: Vero; assay: cells; type: functional; conditions: Chlorocebus sabaeus
[3] = system: BJ; assay: cells; type: functional, cell-based; conditions: Homo sapiens
[4] = cytotoxicity toward DRD oncogenic fibroblasts, dose response, cell-based, non-viral oncogenic, luminescence (AID 1934); type: functional; conditions: Homo sapiens
[5] = system: BJ; assay: cytotoxicity toward BJ-TERT-LT-ST fibroblasts, dose response, cell-based, RAS-independent, luminescence (AID 1935); type: functional; conditions: Homo sapiens;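 note: BJ fibroblasts immortalized with TERT plus LT and ST oncogenes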
[6] = system: Vero; assay: host cell cytotoxicity of antiviral hits, dose response, cytotoxicity control for West Nile virus antiviral project, secondary assay (AID 1650); type: functional; conditions: Chlorocebus sabaeus
[7] = system: BJ; assay: cytotoxicity toward BJ-TERT fibroblasts, dose response, cell-based, RAS-independent, luminescence (AID 1933); type: functional; conditions: Homo sapiens
[8] = biological target: Photoreceptor-specific nuclear receptor (Homo sapiens, UniProt Q9Y5X4); assay: NR2E3 inverse agonists, dose response, biochemical, TR-FRET (AID 463256); type: functional
[9] = biological target: Peroxisome proliferator-activated receptor gamma/Nuclear receptor corepressor 2 (Homo sapiens, UniProt P37231+Q9Y618); assay: Counterscreen for NR2E3 inverse agonists: TR-FRET-based biochemical high throughput dose response assay to identify inverse agonists of the interaction between peroxisome proliferator-activated receptor gamma (PPARg) and nuclear receptor co-repressor 2 (NCOR2).; type: functional
[10] = Luminescence Cell-Based Dose Response to Identify Activators of 5'UTR Stem-Loop Driven Prion Protein mRNA Translation in H4-C Neuroglioblastoma Cells. [Related pubchem assays: 1829 (Project Summary), 1814 (Primary HTS)]; type: functional
[11] = Luminescence Cell-Based Dose Confirmation to Identify Activators of 5'UTR Stem-Loop Driven Alpha-Synuclein mRNA Translation in H4 Neuroglioblastoma Cells. [Related pubchem assays: 1829 (Project Summary), 1814 (Primary HTS)]; type: functional
[12] = Luminescence Cell-Based Dose Response HTS to Identify Activators of Luciferase Translation or Activity in H4 […] Cells. [Related pubchem assays: 1829 (Project Summary), 1814 (Primary HTS)]; type: functional
[13] = Luminescence Cell-Based Dose Response to Identify Activators of Luciferase Translation or Activity in H4-C Neuroglioblastoma Cells. [Related pubchem assays: 1829 (Project Summary), 1814 (Primary HTS)]; type: functional
[14] = biological target: Protein Tat (Human immunodeficiency virus type 1 group M subtype B (isolate HXB2)(HIV-1), UniProt P04608); type: functional;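 note: tat binding to TAR RNA read out by fluorescence polarization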
[15] = biological target: 26S proteasome non-ATPase regulatory subunit 14 (Homo sapiens, UniProt O00487); assay: inhibition of proteasome subunit RPN11 – biochemical, fluorescence polarization, uHTS hits, confirmation (AID 602368); type: functional
[16] = biological target: T1, Tyrosine-protein phosphatase non-receptor type 7 (Homo sapiens, UniProt P35236); assay: inhibitors of human HePTP phosphatase, […], biochemical, absorbance, leukemia target (AID 521); type: functional
T1 sequence (P35236 whole entry): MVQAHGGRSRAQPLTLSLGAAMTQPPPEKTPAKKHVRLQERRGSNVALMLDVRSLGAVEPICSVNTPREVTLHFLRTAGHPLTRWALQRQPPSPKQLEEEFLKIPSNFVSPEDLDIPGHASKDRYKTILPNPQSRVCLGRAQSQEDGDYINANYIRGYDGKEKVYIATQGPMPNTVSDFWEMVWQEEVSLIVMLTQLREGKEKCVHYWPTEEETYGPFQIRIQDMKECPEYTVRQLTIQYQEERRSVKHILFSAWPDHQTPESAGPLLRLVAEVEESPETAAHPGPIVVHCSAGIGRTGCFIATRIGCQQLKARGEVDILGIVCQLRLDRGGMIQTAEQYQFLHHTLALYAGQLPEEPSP

[17] = biological target: 72 kDa type IV collagenase (Homo sapiens, UniProt P08253); assay: Dose Response validation of uHTS RPN11 inhibitor hits using a MMP-2 Fluorescence assay.; type: functional
[18] = biological target: Prothrombin (Bos taurus, UniProt P00735); assay: thrombin inhibition, dose response, biochemical, fluorescence polarization, uHTS hits (AID 602369); type: functional
[19] = inhibitors of intracellular T. cruzi replication, confirmation, NIH3T3 host cells, beta-gal luminescence (AID 2044); type: functional, cell-based;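 note: intracellular parasites grown in NIH/3T3 mouse fibroblasts as host cells; luminescent beta-galactosidase reporter signal from transgenic T. cruzi replicating inside host cells; inhibitors lower the luminescence signal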
[20] = cells
[21] = biological target: T2, Trace amine-associated receptor 1 (Homo sapiens, UniProt Q96RJ0); assay: Counterscreen for agonists of the human trace amine associated receptor 1 (hTAAR1): Fluorescence-based cell-based high throughput dose response assay to identify hTAAR1 agonist that also desensitize TAAR1 receptor response.; type: functional
T2 sequence (Q96RJ0 whole entry): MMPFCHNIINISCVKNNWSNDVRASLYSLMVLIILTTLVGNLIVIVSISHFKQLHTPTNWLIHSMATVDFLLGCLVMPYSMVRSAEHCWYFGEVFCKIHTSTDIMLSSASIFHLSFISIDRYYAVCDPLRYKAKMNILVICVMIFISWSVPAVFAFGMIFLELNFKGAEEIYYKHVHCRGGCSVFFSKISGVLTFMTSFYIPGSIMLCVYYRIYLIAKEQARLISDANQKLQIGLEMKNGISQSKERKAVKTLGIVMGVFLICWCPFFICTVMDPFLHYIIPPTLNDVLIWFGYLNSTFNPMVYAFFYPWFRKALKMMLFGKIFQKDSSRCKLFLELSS

[22] = cytotoxicity toward NIH3T3 fibroblasts, dose response, counter-screen, cell-based, ATP luminescence, mouse fibroblasts (AID 2010); type: functional;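 note: cells exposed to compound for about 90 hours before reading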
[23] = biological target: T2, Trace amine-associated receptor 1; assay: Fluorescence-based cell-based high throughput dose response assay to identify agonists of the human trace amine associated receptor 1 (TAAR1).; type: functional
[24] = cells; type: functional, cell-based
[25] = cells; type: functional, cell-based; remark: listed apart in the source

Peroxisome proliferator-activated receptor gamma/Nuclear receptor corepressor 2, sequence (P37231 whole entry): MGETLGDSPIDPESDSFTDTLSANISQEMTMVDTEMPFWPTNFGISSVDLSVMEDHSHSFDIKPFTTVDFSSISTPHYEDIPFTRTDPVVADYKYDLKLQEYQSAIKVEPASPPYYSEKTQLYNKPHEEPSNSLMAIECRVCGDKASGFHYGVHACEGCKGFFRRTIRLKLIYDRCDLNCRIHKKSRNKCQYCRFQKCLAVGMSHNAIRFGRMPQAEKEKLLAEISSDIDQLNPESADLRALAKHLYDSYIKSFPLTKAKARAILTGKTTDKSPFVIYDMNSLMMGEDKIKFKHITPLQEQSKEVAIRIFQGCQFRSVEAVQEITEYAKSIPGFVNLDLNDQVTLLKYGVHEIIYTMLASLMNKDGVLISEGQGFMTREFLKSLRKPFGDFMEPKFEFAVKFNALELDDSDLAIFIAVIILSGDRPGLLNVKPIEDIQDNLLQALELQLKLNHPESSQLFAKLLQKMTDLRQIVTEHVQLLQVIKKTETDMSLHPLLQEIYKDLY
Peroxisome proliferator-activated receptor gamma/Nuclear receptor corepressor 2, sequence (Q9Y618 whole entry): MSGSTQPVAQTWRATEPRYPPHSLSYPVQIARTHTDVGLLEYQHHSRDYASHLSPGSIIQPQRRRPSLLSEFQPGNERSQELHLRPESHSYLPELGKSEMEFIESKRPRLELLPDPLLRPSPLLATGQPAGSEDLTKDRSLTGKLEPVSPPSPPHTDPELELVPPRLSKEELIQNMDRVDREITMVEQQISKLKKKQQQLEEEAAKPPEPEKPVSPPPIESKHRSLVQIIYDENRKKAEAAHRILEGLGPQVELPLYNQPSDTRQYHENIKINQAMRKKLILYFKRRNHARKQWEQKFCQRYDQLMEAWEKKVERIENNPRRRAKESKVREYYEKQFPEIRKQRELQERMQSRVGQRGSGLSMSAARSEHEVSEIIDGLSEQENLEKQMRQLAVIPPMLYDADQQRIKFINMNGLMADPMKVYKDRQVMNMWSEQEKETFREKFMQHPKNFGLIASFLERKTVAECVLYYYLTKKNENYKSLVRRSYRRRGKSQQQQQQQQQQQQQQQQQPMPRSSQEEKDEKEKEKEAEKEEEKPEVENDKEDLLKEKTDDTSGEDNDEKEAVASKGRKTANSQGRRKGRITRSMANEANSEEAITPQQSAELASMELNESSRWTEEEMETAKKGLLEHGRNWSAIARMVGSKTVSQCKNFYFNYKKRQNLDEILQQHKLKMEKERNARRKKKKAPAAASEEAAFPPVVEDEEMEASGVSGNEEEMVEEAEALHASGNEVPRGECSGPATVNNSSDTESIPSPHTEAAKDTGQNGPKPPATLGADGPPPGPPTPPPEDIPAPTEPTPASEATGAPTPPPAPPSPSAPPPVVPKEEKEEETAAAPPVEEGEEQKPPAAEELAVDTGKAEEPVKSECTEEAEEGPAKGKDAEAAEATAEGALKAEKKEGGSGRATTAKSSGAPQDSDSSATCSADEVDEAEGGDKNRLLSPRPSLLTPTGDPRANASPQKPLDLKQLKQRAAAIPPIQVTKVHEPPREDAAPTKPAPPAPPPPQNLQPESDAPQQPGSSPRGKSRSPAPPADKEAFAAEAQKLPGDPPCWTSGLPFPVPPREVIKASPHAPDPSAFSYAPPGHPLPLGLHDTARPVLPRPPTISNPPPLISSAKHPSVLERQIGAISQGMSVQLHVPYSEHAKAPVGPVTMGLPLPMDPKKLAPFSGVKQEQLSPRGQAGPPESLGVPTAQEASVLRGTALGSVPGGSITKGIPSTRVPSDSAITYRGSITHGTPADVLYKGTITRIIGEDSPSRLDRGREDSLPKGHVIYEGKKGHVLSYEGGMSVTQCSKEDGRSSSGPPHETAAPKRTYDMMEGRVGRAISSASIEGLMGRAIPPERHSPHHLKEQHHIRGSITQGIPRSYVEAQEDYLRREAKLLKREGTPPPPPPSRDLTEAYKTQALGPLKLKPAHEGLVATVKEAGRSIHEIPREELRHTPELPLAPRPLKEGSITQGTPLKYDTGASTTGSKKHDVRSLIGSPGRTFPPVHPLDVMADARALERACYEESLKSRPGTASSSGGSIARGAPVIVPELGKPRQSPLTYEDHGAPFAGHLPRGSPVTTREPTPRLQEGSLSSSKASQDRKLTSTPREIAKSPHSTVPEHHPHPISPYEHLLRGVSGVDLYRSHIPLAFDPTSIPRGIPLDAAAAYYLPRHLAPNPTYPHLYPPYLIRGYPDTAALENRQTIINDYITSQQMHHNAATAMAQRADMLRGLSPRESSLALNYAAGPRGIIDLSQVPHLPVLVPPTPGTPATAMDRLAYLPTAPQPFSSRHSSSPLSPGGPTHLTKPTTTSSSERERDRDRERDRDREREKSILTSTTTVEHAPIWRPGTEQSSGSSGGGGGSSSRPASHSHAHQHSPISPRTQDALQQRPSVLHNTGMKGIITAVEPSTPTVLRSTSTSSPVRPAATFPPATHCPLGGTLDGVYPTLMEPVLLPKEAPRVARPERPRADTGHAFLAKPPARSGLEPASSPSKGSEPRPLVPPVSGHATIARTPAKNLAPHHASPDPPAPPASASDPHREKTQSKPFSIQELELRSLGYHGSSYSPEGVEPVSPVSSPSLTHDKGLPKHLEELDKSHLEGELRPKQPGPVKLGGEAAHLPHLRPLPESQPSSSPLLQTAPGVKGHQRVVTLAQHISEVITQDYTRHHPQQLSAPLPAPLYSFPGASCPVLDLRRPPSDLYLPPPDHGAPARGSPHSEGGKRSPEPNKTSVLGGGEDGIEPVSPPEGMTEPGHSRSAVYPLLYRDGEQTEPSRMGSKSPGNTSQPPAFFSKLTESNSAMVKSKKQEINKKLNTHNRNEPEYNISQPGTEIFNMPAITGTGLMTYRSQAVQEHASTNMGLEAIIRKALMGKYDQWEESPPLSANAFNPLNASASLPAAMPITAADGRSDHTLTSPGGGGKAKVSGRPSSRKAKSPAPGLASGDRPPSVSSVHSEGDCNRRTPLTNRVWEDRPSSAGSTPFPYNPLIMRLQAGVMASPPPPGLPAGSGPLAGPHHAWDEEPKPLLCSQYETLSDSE
72 kDa type IV collagenase, sequence (P08253 whole entry): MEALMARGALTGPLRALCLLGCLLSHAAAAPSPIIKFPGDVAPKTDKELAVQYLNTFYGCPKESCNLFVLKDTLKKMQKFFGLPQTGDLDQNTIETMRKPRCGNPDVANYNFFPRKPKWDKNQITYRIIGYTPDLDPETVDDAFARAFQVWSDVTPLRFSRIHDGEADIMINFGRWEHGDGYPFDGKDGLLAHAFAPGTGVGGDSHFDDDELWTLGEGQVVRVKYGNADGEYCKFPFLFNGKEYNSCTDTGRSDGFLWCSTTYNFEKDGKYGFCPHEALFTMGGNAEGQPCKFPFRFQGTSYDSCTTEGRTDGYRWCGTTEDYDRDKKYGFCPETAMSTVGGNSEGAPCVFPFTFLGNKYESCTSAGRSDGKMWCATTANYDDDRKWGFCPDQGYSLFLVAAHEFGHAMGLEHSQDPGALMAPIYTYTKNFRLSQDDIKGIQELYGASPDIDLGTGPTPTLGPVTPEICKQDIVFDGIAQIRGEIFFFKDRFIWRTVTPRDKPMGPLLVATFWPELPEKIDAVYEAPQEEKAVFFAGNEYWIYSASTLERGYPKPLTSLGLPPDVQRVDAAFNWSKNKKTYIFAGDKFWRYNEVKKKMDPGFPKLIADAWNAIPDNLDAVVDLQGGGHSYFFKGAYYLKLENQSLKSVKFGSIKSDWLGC
Photoreceptor-specific nuclear receptor, sequence (Q9Y5X4 whole entry): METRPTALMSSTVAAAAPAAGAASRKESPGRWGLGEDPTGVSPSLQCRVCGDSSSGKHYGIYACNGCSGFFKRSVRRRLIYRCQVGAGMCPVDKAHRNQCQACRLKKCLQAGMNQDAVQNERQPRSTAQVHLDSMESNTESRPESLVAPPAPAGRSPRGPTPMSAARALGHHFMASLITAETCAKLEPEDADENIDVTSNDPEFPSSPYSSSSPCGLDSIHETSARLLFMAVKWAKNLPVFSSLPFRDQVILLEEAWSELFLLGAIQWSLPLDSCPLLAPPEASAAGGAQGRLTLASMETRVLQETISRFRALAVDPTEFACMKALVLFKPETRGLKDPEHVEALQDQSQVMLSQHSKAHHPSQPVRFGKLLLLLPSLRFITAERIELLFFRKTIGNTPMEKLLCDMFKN
26S proteasome non-ATPase regulatory subunit 14, sequence (O00487 whole entry): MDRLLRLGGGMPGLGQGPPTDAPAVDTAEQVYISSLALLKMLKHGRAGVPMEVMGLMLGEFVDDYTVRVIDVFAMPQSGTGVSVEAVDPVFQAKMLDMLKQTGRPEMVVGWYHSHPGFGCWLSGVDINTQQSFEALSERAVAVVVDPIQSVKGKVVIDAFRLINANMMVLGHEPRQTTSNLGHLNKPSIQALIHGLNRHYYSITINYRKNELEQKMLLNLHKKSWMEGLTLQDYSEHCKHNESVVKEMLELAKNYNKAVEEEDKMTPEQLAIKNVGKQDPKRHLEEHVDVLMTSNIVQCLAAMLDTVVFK
Protein Tat, sequence (P04608 whole entry): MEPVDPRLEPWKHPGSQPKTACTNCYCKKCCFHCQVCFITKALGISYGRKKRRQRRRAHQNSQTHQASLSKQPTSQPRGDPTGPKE

C[C@H]1O[C@@H](OC2CC[C@]3(C=O)[C@H]4CC[C@]5(C)[C@@H](C6=CC(=O)OC6)CC[C@]5(O)[C@@H]4CC[C@]3(O)C2)CC2OC(C)(C)OC21 (stereo partly specified)
IC50 [1]: < 50 nM (active)
CC50 [2]: 100 nM (active)
EC50 [3]: 1370 nM (inconclusive)
EC50 [4]: 1140 nM (active)
EC50 [5]: 1280 nM (inconclusive)
CC50 [6]: < 39 nM (active)
EC50 [7]: 1010 nM (active)

Cc1cccc(OCc2nnc(SCC(=O)NC3CCCC3)n2C)c1
IC50 [8]: 6660 nM (active)
IC50 [9]: 4790 nM (active)

NC(=O)C1=C[C@H](C2CCCCC2)C[C@H](OCc2ccc(CO)cc2)O1
IC50 [1]: > 25000 nM (active)
EC50 [10]: 326 nM (active)
EC50 [11]: 558 nM (active)
EC50 [12]: < 100 nM (inconclusive)
EC50 [13]: > 12000 nM (not active)

Cc1cc(S(=O)(=O)N(Cc2ccccn2)Cc2ccco2)ccc1-n1cnnn1
IC50 [14]: > 100000 nM (active)

C#CCn1/c(=N/C(=O)c2cccs2)sc2cccc(OC)c21
IC50 [15]: 24900 nM (active)
IC50 [16]: > 100000 nM (not active)
IC50 [17]: > 100000 nM (inactive)
IC50 [18]: > 100000 nM (inactive)

N=C(N)N/N=C/c1ccccc1
EC50 [19]: < 100 nM (active)
EC50 [20]: 112 nM (active)
IC50 [21]: 1670 nM (active)
EC50 [22]: > 60000 nM (not active)
EC50 [23]: > 3320 nM (active)
EC50 [24]: > 29900 nM (inactive)
IC50 [25]: > 29900 nM (inactive)
